Experimental data published in US6852673B2, “Herbicidal pyridine compounds” (BASF Aktiengesellschaft, priority 1998, dated 2005).

Experiments:
Type in all cases: in vivo
[1] = tested on: Cassia obtusifolia (CASOB); assay: Post-emergence herbicidal evaluation, sicklepod; settings: rated 2 to 4 weeks after treatment
Method: (§1) [table] [table] […] These acetone solutions are diluted with water and the resulting formulations applied at dosage levels equivalent of about 0.03 to 0.4 kg per hectare of test compound per pot. After spraying the plants are placed on greenhouse benches and are cared for in the usual manner, commensurate with conventional greenhouse practices. From 2 to 4 weeks after treatment, the seedling plants are examined and rated according to the rating system provided above. A rating 0 indicates growth as untreated control, a rating 9 indicates death.

[2] = tested on: Abutilon theophrasti (ABUTH); assay: Pre-emergence herbicidal evaluation, velvetleaf
From the text: (§2) The pre-emergence herbicidal activity of the compounds of the present invention is exemplified by the following test in which the seeds of a variety of monocotyledonous and dicotyledonous plants are seperately mixed with potting soil and planted on top of approximately one inch of soil in separate pots. After planting, the pots are sprayed with the selected aqueous acetone solution containing test compound in sufficient quantity to provide the equivalent of about 0.0125 to 0.4 kg per hectare of test compound per pot. The treated pots are then placed on greenhouse benches, watered and cared for in accordance with conventional greenhouse procedures. From 2 to 4 weeks after treatment, the tests are terminated and each pot is examined and rated according to the rating system set forth below.

Setaria viridis (SETVI) = assay: Post-emergence herbicidal evaluation, green foxtail; settings: rated 2 to 4 weeks after treatment
Method: as §1

[3] = tested on: Ambrosia artemiisifolia (AMBEL); assay: Pre-emergence herbicidal evaluation, ragweed
From the text: as §2

[4] = tested on: Ipomoea hederacea (IPOHE); assay: Pre-emergence herbicidal evaluation, morning glory
From the text: as §2

[5] = tested on: Matricaria inodora (MATIN); assay: Pre-emergence herbicidal evaluation, mayweed
From the text: as §2

[6] = tested on: Cassia obtusifolia (CASOB); assay: Pre-emergence herbicidal evaluation, sicklepod
From the text: as §2

Galium aparine (GALAP) = assay: Post-emergence herbicidal evaluation, cleaver; settings: rated 2 to 4 weeks after treatment
Method: as §1

Stellaria media (STEME) = assay: Post-emergence herbicidal evaluation, chickweed; settings: rated 2 to 4 weeks after treatment
Method: as §1

[7] = tested on: Digitaria sanguinalis (DIGSA); assay: Pre-emergence herbicidal evaluation, large crabgrass
From the text: as §2

Compound	ABUTH rating ([2]; dose 0.013 kg/ha)	ABUTH rating ([2]; dose 0.025 kg/ha)	ABUTH rating ([2]; dose 0.1 kg/ha)	ABUTH rating ([2]; dose 0.4 kg/ha)	SETVI rating (Setaria viridis (SETVI); dose 0.03 kg/ha)	SETVI rating (Setaria viridis (SETVI); dose 0.1 kg/ha)	SETVI rating (Setaria viridis (SETVI); dose 0.4 kg/ha)	AMBEL rating ([3]; dose 0.013 kg/ha)	AMBEL rating ([3]; dose 0.025 kg/ha)	AMBEL rating ([3]; dose 0.1 kg/ha)	AMBEL rating ([3]; dose 0.4 kg/ha)	IPOHE rating ([4]; dose 0.013 kg/ha)	IPOHE rating ([4]; dose 0.025 kg/ha)	IPOHE rating ([4]; dose 0.1 kg/ha)	IPOHE rating ([4]; dose 0.4 kg/ha)	MATIN rating ([5]; dose 0.013 kg/ha)	MATIN rating ([5]; dose 0.025 kg/ha)	MATIN rating ([5]; dose 0.1 kg/ha)	MATIN rating ([5]; dose 0.4 kg/ha)	GALAP rating (Galium aparine (GALAP); dose 0.03 kg/ha)	also measured
Cc1cc(OC/C=C/C(F)(F)F)nc(Oc2cc(C(F)(F)F)nn2C)c1 [Example 1, (E)-2-(1-Methyl-3-trifluoromethylpyrazol-5-yloxy)-4-methyl-6-(4,4,4-trifluorobut-2-enyloxy)pyridine]	7 (7 - Good herbicidal effect)	7 (7 - Good herbicidal effect)	8 (8 - Approaching complete kill)	9 (9 - Complete kill)	5 (5 - Definite injury)	8 (8 - Approaching complete kill)	8 (8 - Approaching complete kill)	5 (5 - Definite injury)	9 (9 - Complete kill)	9 (9 - Complete kill)	9 (9 - Complete kill)	2 (2 - Slight effect)	5 (5 - Definite injury)	7 (7 - Good herbicidal effect)	9 (9 - Complete kill)	8 (8 - Approaching complete kill)	9 (9 - Complete kill)	9 (9 - Complete kill)	9 (9 - Complete kill)	7 (7 - Good herbicidal effect)	CASOB rating ([1]; dose 0.03 kg/ha): 5 (5 - Definite injury); CASOB rating ([1]; dose 0.1 kg/ha): 5 (5 - Definite injury); CASOB rating ([1]; dose 0.4 kg/ha): 5 (5 - Definite injury); activity against Abutilon [2]: superior activity; CASOB rating ([6]; dose 0.013 kg/ha): 0 (0 - No effect); CASOB rating ([6]; dose 0.025 kg/ha): 9 (9 - Complete kill); CASOB rating ([6]; dose 0.1 kg/ha): 9 (9 - Complete kill); CASOB rating ([6]; dose 0.4 kg/ha): 9 (9 - Complete kill); GALAP rating (Galium aparine (GALAP); dose 0.1 kg/ha): 8 (8 - Approaching complete kill); GALAP rating (Galium aparine (GALAP); dose 0.4 kg/ha): 8 (8 - Approaching complete kill); STEME rating (Stellaria media (STEME); dose 0.03 kg/ha): 5 (5 - Definite injury); STEME rating (Stellaria media (STEME); dose 0.1 kg/ha): 5 (5 - Definite injury); STEME rating (Stellaria media (STEME); dose 0.4 kg/ha): 6 (6 - Herbicidal effect)
CC(Cl)=CCOc1cc(C)cc(Oc2cc(C(F)(F)F)nn2C)n1 [Example 11]	3 (3 - Moderate effect)	7 (7 - Good herbicidal effect)	9 (9 - Complete kill)	9 (9 - Complete kill)	5 (5 - Definite injury)	6 (6 - Herbicidal effect)	8 (8 - Approaching complete kill)	7 (7 - Good herbicidal effect)	9 (9 - Complete kill)	9 (9 - Complete kill)	9 (9 - Complete kill)	2 (2 - Slight effect)	4 (4 - Injury)	8 (8 - Approaching complete kill)	9 (9 - Complete kill)	9 (9 - Complete kill)	9 (9 - Complete kill)	9 (9 - Complete kill)	9 (9 - Complete kill)	6 (6 - Herbicidal effect)	activity against Abutilon [2]: superior activity; DIGSA rating ([7]; dose 0.013 kg/ha): 8 (8 - Approaching complete kill); DIGSA rating ([7]; dose 0.025 kg/ha): 8 (8 - Approaching complete kill); DIGSA rating ([7]; dose 0.1 kg/ha): 9 (9 - Complete kill); DIGSA rating ([7]; dose 0.4 kg/ha): 9 (9 - Complete kill); GALAP rating (Galium aparine (GALAP); dose 0.1 kg/ha): 9 (9 - Complete kill); GALAP rating (Galium aparine (GALAP); dose 0.4 kg/ha): 9 (9 - Complete kill); STEME rating (Stellaria media (STEME); dose 0.03 kg/ha): 4 (4 - Injury); STEME rating (Stellaria media (STEME); dose 0.1 kg/ha): 6 (6 - Herbicidal effect); STEME rating (Stellaria media (STEME); dose 0.4 kg/ha): 8 (8 - Approaching complete kill)
COc1cc(OCC(F)(F)C(F)F)nc(Oc2cc(C(F)(F)F)nn2C)c1 [Example 4, 2-(1-Methyl-3-trifluoromethylpyrazol-5-yloxy)-4-methoxy-6-(2,2,3,3-tetrafluoropropyloxy)pyridine]	3 (3 - Moderate effect)	5 (5 - Definite injury)	7 (7 - Good herbicidal effect)	9 (9 - Complete kill)	6 (6 - Herbicidal effect)	8 (8 - Approaching complete kill)	9 (9 - Complete kill)	4 (4 - Injury)	9 (9 - Complete kill)	9 (9 - Complete kill)	9 (9 - Complete kill)	3 (3 - Moderate effect)	6 (6 - Herbicidal effect)	9 (9 - Complete kill)	9 (9 - Complete kill)	8 (8 - Approaching complete kill)	8 (8 - Approaching complete kill)	9 (9 - Complete kill)	9 (9 - Complete kill)	6 (6 - Herbicidal effect)	CASOB rating ([6]; dose 0.013 kg/ha): 3 (3 - Moderate effect); CASOB rating ([6]; dose 0.025 kg/ha): 4 (4 - Injury); CASOB rating ([6]; dose 0.1 kg/ha): 7 (7 - Good herbicidal effect); CASOB rating ([6]; dose 0.4 kg/ha): 9 (9 - Complete kill); GALAP rating (Galium aparine (GALAP); dose 0.1 kg/ha): 9 (9 - Complete kill); GALAP rating (Galium aparine (GALAP); dose 0.4 kg/ha): 9 (9 - Complete kill); STEME rating (Stellaria media (STEME); dose 0.03 kg/ha): 6 (6 - Herbicidal effect); STEME rating (Stellaria media (STEME); dose 0.1 kg/ha): 6 (6 - Herbicidal effect); STEME rating (Stellaria media (STEME); dose 0.4 kg/ha): 8 (8 - Approaching complete kill)
Cc1cc(OCC=C(Cl)Cl)nc(Oc2cc(C(F)(F)F)nn2C)c1 [Example 12]	2 (2 - Slight effect)	7 (7 - Good herbicidal effect)	8 (8 - Approaching complete kill)	9 (9 - Complete kill)	9 (9 - Complete kill)	9 (9 - Complete kill)	9 (9 - Complete kill)	8 (8 - Approaching complete kill)	8 (8 - Approaching complete kill)	9 (9 - Complete kill)	9 (9 - Complete kill)	2 (2 - Slight effect)	3 (3 - Moderate effect)	9 (9 - Complete kill)	9 (9 - Complete kill)	8 (8 - Approaching complete kill)	9 (9 - Complete kill)	9 (9 - Complete kill)	9 (9 - Complete kill)	7 (7 - Good herbicidal effect)	CASOB rating ([1]; dose 0.03 kg/ha): 8 (8 - Approaching complete kill); CASOB rating ([1]; dose 0.1 kg/ha): 8 (8 - Approaching complete kill); CASOB rating ([1]; dose 0.4 kg/ha): 8 (8 - Approaching complete kill); DIGSA rating ([7]; dose 0.013 kg/ha): 9 (9 - Complete kill); DIGSA rating ([7]; dose 0.025 kg/ha): 9 (9 - Complete kill); DIGSA rating ([7]; dose 0.1 kg/ha): 9 (9 - Complete kill); DIGSA rating ([7]; dose 0.4 kg/ha): 9 (9 - Complete kill); GALAP rating (Galium aparine (GALAP); dose 0.1 kg/ha): 8 (8 - Approaching complete kill); GALAP rating (Galium aparine (GALAP); dose 0.4 kg/ha): 9 (9 - Complete kill); STEME rating (Stellaria media (STEME); dose 0.03 kg/ha): 8 (8 - Approaching complete kill); STEME rating (Stellaria media (STEME); dose 0.1 kg/ha): 8 (8 - Approaching complete kill); STEME rating (Stellaria media (STEME); dose 0.4 kg/ha): 8 (8 - Approaching complete kill)
Cc1cc(OC=CCC(F)(F)F)nc(Oc2cc(C(F)(F)F)nn2C)c1 [Example 2, 2-(1-Methyl-3-trifluoromethylpyrazol-5-yloxy)-4-methyl-6-(4,4,4-trifluorobut-1-enyloxy)pyridine]	1 (1 - Trace effect)	4 (4 - Injury)	6 (6 - Herbicidal effect)	9 (9 - Complete kill)	4 (4 - Injury)	8 (8 - Approaching complete kill)	8 (8 - Approaching complete kill)	1 (1 - Trace effect)	3 (3 - Moderate effect)	8 (8 - Approaching complete kill)	9 (9 - Complete kill)	1 (1 - Trace effect)	3 (3 - Moderate effect)	3 (3 - Moderate effect)	7 (7 - Good herbicidal effect)	4 (4 - Injury)	6 (6 - Herbicidal effect)	8 (8 - Approaching complete kill)	9 (9 - Complete kill)	5 (5 - Definite injury)	CASOB rating ([6]; dose 0.013 kg/ha): 0 (0 - No effect); CASOB rating ([6]; dose 0.025 kg/ha): 1 (1 - Trace effect); CASOB rating ([6]; dose 0.1 kg/ha): 9 (9 - Complete kill); CASOB rating ([6]; dose 0.4 kg/ha): 9 (9 - Complete kill); GALAP rating (Galium aparine (GALAP); dose 0.1 kg/ha): 7 (7 - Good herbicidal effect); GALAP rating (Galium aparine (GALAP); dose 0.4 kg/ha): 9 (9 - Complete kill); STEME rating (Stellaria media (STEME); dose 0.03 kg/ha): 4 (4 - Injury); STEME rating (Stellaria media (STEME); dose 0.1 kg/ha): 6 (6 - Herbicidal effect); STEME rating (Stellaria media (STEME); dose 0.4 kg/ha): 8 (8 - Approaching complete kill)
